Test results from patent US20220287993A1, “PHARMACEUTICAL COMPOSITION COMPRISING HDAC INHIBITOR AND ANTI-PD1 ANTIBODY OR ANTI PD-L1 ANTIBODY” (CRYSTALGENOMICS, INC., priority 2019, published 2022).

Test system: Hepal-6 hepatoma cells
Assay: Tumor growth inhibition rate in mouse model (Hepal-6 hepatoma cells transplanted into C57BL/6 mice)
Type: in vivo, mice (C57BL/6)
Procedure: (E)-N1-(3-(dimethylamino)propyl)-N8-hydroxy-2-((naphthalen-1-yloxy)methyl)-2-octenediamide phosphate (CG-745, CAS No. 2173017-02-0) was used as the alkylcarbamoyl naphthalenyloxy octenoyl hydroxyamide compound, and BP0146 (BioXcell, West Lebanon, N.H., USA) was used as the anti-PD-1 antibody.
1×10^6 Hepal-6 hepatoma cells were injected into the left flank of 6-week-old C57BL6 mice. After 5 days, they were separated into 4 groups for administration of the vehicle, CG-745 alone, the anti-PD-1 antibody alone, or a combination of CG-745 and the anti-PD-1 antibody. The tumor volume was defined as (long axis)×(short axis)^2×0.5. […] Vehicle, CG-745, and the anti-PD-1 antibody were administered intraperitoneally (I.P). CG-745 was administered at a dose of 20 mg/kg for 5 consecutive days followed by 2 days of rest (1 treatment cycle) and the treatment cycle was repeated 3 times. The anti-PD-1 antibody was administered once at a dose of 5 mg/kg together with CG-745 on the fifth day of the first treatment cycle of CG-745.
The average inhibition rate of tumor growth for 9 mice is shown in FIG. 1, and the results for each of 9 mice are shown in FIG. 2.

SMILES: CN(C)CCCNC(=O)/C(=C/CCCCC(=O)NO)COc1cccc2ccccc12.O=P(O)(O)O [Comparative Example 1, (E)-N1-(3-(dimethylamino)propyl)-N8-hydroxy-2-((naphthalen-1-yloxy)methyl)-2-octenediamide phosphate]
- tumor growth inhibition rate (Day 32, average of 9 mice, CG-745 20 mg/kg I.P. 5 days on/2 days off x 3 cycles, anti-PD-1 antibody 5 mg/kg I.P. once): 73.8%
- number of mice in which the tumor disappeared (of 9 mice per group, same dosing as the tumor growth inhibition rate): 4 mice
